Test results taken from patent publication US12357631B2 (priority 2018, dated 2025).

What was measured:
Test in all cases: biochemical
Type in all cases: binding
PB2 CDlp7028 H3N2 = PB2 CDlp7028 H3N2 (Influenza A virus, UniProt P31345)
PB2 CDlp7007 H3N2 = PB2 CDlp7007 H3N2 (Influenza A virus, UniProt P31345)
PB2 = PB2 (Influenza A virus, UniProt P03428)
PB2 CDlp7026 H1N1 = PB2 CDlp7026 H1N1 (Influenza A virus, UniProt P03428)
Chain of PB2 CDlp7026 H1N1 (P03428 whole entry, looked up): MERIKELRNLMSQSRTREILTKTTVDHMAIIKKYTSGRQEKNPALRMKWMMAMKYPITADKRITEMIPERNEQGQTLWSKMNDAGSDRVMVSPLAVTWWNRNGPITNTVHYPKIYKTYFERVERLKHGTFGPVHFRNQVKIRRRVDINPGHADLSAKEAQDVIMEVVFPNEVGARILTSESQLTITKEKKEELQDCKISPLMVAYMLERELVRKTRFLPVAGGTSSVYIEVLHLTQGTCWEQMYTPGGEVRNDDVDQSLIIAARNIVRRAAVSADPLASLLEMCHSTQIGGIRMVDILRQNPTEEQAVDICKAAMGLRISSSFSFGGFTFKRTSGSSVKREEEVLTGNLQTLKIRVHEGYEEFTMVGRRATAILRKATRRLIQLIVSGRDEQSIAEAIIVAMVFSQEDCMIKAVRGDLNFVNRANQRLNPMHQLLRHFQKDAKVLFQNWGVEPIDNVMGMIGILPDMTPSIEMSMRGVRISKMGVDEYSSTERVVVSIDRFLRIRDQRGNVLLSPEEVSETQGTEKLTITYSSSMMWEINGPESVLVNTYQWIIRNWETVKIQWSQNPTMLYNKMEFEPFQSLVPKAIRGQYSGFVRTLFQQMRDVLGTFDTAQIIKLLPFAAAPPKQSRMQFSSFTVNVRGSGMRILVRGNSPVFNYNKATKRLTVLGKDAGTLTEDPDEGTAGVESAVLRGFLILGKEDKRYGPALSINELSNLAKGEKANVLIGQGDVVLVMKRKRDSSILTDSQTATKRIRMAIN

Chain of PB2 CDlp7007 H3N2 (P31345 whole entry, looked up): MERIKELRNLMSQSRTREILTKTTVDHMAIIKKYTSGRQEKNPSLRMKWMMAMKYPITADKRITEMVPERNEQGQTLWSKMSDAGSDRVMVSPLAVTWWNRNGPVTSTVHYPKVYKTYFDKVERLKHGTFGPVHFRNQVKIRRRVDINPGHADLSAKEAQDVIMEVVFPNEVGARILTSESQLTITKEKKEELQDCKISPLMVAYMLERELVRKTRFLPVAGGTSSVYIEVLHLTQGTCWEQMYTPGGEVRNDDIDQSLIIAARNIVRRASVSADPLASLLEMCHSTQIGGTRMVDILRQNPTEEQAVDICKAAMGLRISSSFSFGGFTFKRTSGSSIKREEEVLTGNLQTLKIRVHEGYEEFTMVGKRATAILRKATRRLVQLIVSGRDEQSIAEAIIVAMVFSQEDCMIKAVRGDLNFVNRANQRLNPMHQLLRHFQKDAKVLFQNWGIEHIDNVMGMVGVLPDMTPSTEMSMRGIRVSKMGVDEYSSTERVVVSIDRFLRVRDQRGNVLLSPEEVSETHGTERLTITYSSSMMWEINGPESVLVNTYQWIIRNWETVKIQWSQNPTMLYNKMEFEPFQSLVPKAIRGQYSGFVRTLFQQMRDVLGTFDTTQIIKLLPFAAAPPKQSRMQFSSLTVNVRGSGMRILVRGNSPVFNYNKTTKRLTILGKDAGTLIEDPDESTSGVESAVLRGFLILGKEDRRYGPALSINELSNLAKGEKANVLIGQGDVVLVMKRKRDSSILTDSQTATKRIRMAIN
Chain of PB2 CDlp7028 H3N2 (P31345 whole entry, looked up): as above
Chain of PB2 (P03428 whole entry, looked up): as the sequence (P03428 whole entry, looked up) above

Compound: CCOCCOCCCCCN(C)C(=O)N[C@@H]1CCC[C@H](Nc2nc(-c3c[nH]c4ncc(F)cc34)ncc2F)C1 [Compound A181]
- IC50 (PB2 CDlp7028 H3N2): 25 to 50 µM
- IC50 (PB2 CDlp7007 H3N2): 50 to 100 µM

Compound: CCNC(=O)OCc1ccnc(C(=O)N[C@@H]2CCC[C@H](Nc3nc(-c4c[nH]c5ncc(F)cc45)ncc3F)C2)c1 [Compound A70]
- IC50 (PB2 CDlp7028 H3N2): < 5 µM
- EC50 (PB2): < 5 µM
- IC50 (PB2 CDlp7026 H1N1): 5 to 25 µM
- IC50 (PB2 CDlp7007 H3N2): 5 to 25 µM

Compound: CCOCCOCCCCC(=O)N[C@@H]1CCC[C@H](Nc2nc(-c3c[nH]c4ncc(F)cc34)ncc2F)C1 [Compound A270]
- IC50 (PB2 CDlp7028 H3N2): > 100 µM
- IC50 (PB2 CDlp7007 H3N2): > 100 µM

Compound: O=C(COCCOCCOCCO)N1CCC[C@H](Nc2nc(-c3c[nH]c4ncc(F)cc34)ncc2F)C1 [Compound C1]
- IC50 (PB2 CDlp7028 H3N2): 5 to 25 µM
- IC50 (PB2 CDlp7007 H3N2): 5 to 25 µM

Compound: CCOCCOCCOCCN(C)C(=O)N[C@@H]1CCC[C@H](Nc2nc(-c3c[nH]c4ncc(F)cc34)ncc2F)C1 [Compound A165]
- IC50 (PB2 CDlp7028 H3N2): 50 to 100 µM
- IC50 (PB2 CDlp7007 H3N2): 50 to 100 µM

Compound: CCOCCOCCOCC(=O)N1CCC[C@H](Nc2nc(-c3c[nH]c4ncc(F)cc34)ncc2F)C1 [Compound C2]
- IC50 (PB2 CDlp7028 H3N2): 5 to 25 µM
- IC50 (PB2 CDlp7007 H3N2): 5 to 25 µM
